US11634450B2, “DOT1L degraders and uses thereof” (DANA-FARBER CANCER INSTITUTE, INC., priority 2018, dated 2023)

Experiments:
CRBN with DOT1L = CRBN with DOT1L (Homo sapiens, UniProt Q8TEK3+Q96SW2); experiment: Biochemical dimerization assay of CRBN with DOT1L induced by the degraders; conditions: FIG. 20, biochemical assay setting
Description: This new assay checks if the exemplary compounds can dimerize CRBN and DOT1L in a biochemical assay setting.
A biochemical assay was completed to determine the dimerization of CRBN with DOT1L induced by the degraders. This assay checks if the exemplary compounds can dimerize CRBN and DOT1L in a biochemical assay setting.

[1] = biological target: T1, DOT1L tagged GFP and mcherry (Homo sapiens, UniProt Q8TEK3+Q96SW2); experiment: DOT1L degradation eGFP-mCherry reporting cell line assay; format: cell-based; conditions: FIG. 26, eGFP-mCherry reporting cell line, 24 hour treatment
T1 construct: eGFP; mCherry; expressed in transfected cells
Method: This can directly report the targeted protein degradation. (See Sievers et al., Science, 2018).
The tested compounds include exemplary DOT1L degrader compounds JQ-DD2, JQ-DD3, JQ-DD4, JQ-DD5, JQ-DD6, JQ-DD7, JQ-DD8, negative control EPZ5676, and positive controls thalidomide and lenalidomide. The eGFP-mCherry reporting cell line can report the degradation well in 24 hours.
A new DOT1L degradation reporting cell line was developed with DOT1L tagged GFP and mcherry. This reporting cell line can directly report the targeted protein degradation. (See Sievers et al., Science, 2018). DOT1L degradation using eGFP-mCherry reporting cell line assays were conducted for exemplary DOT1L degrader compounds, and control compounds at different concentrations [M], measured in [M] per mP. The tested compounds include exemplary DOT1L degrader compounds JQ-DD2, JQ-DD3, JQ-DD4, JQ-DD5, JQ-DD6, JQ-DD7, JQ-DD8, and controls EPZ5676, Thalidomide, and Lenalidomide.

DOT1L [2] = biological target: T2, DOT1L (Homo sapiens, UniProt Q8TEK3); experiment: DOT1L degradation in EOL1 cells by immunoblot; format: cell-based; design: endogenous in cells; host or cells: EOL1; conditions: for DOT1L degradation: immunoblot
Method: With JQ-DD6, the degradation happened at 16 hours and maximum degradation occurs at 24 hours.
(§1) EOL1 (acute myeloid (eosinophilic) leukemia cell line) cells were treated with exemplary DOT1L degrader compounds JQ-DD6, JQ-DD7, and JQ-DD8 at 0.5 μM, 1 μM, 3 μM, 5 μM, and 10 μM for 24 hours. Cell lysates were loaded on SDS-PAGE, then immunoblotted with DOT1L, Myc, H3K79me2, and actin. (see FIG. 21).
EOL1 cells were treated with exemplary DOT1L degrader compounds JQ-DD2, JQ-DD4, and JQ-DD6, JQ-DD7, and JQ-DD8 at 1 μM and […] for 2, 4, 8, 16, and 24 hours. Cell lysates were immunoblotted with DOT1L, Myc, H3K79me2, and actin at the indicated concentrations for the indicated times. (see FIG. 23).
(§2) EOL1 cells were treated with exemplary DOT1L degrader compounds JQ-DD6, JQ-DD7, and JQ-DD8 at 1 μM and […] for 24 and 48 hours. Cell lysates were immunoblotted with DOT1L, Myc, H3K79me2, and actin at the indicated concentrations for the indicated times. (see FIG. 24).

EOL1 cells = experiment: Toxicity seen in EOL1 cells treated for immunoblot; format: cell-based; conditions: at 24 hours
Method: as §1, §2

DOT1L [3] = biological target: T3, DOT1L (Mus musculus, UniProt Q6XZL8); experiment: Degradation in mouse MLL-AF9 PA cell line by immunoblot; format: cell-based; conditions: FIGS. 10A-10B, mouse MLL-AF9 PA cells, up to 10 μM, 24, 48 and 72 hours
T3 construct: endogenous in cells; host or cells: mouse MLL-AF9 PA leukemia cells
Method: FIGS. 10A-10B show mouse MLL-AF9 PA (Mixed-lineage leukemia (MLL)-AF9 leukemia) cells treated with DOT1L-1 at the indicated concentrations for the indicated amount of time. The cells were immunoblotted with DOT1L (D402T), actin, and H3K79me2.
Mouse MLL-AF9 PA (Mixed-lineage leukemia (MLL)-AF9 leukemia) cells were treated with DOT1L-1 at 0 μM, 0.3 μM, 1 μM, 3.3 μM, and 10 μM for 24 hours, 48 hours, and 72 hours. Cell lysates were loaded on SDS-PAGE, then immunoblotted with DOT1L (D402T), actin, H3K79me2, and total H3. A second treatment was performed with DOT1L-1 concentrations of 0 μM, 0.01 μM, 0.1 μM, 0.3 μM, 1 μM, 3.3 μM, and 10 μM, at 24 hours and 48 hours.

DOT1L [4] = biological target: T2, DOT1L; experiment: Degradation in Molm13 PA cell line by immunoblot; format: cell-based; design: endogenous in cells; conditions: FIGS. 9A-9B, 0.3 μM to 10 μM, 24, 48 and 72 hours
Method: FIGS. 9A-9B show acute myeloid leukemia cells (Molm13 PA) treated with DOT1L-1 at the indicated concentrations for the indicated amount of time. The cells were immunoblotted with DOT1L (D402T), actin, and H3K79me2.
The cells were immunoblotted with DOT1L (D402T), actin, and H3K79me2.
Molm13PA (acute myeloid leukemia) cells were treated with dDOT1L-1 at 0 μM, 0.3 μM, 1 μM, 3.3 μM, and 10 μM for 24 hours and 48 hours. Cell lysates were loaded on SDS-PAGE, then immunoblotted with DOT1L (D402T), actin, H3K79me2, total H3. Repeat treatment was performed at 24 hours, 48 hours and 72 hours at the same concentrations of dDOT1L-1. […] (see FIGS. 9A-9B).
Molm13PA (acute myeloid leukemia) cells were treated with DOT1L-4 at 0 μM, 0.3 μM, 1 μM, 3.3 μM, and 10 μM for 24 hours, 48 hours, and 72 hours. Cell lysates were loaded on SDS-PAGE, then immunoblotted with DOT1L (D402T), actin, H3K79me2, total H3.

[5] = FIG. 21, EOL1 cells, 0.5 μM, 1 μM, 3 μM, 5 μM, and 10 μM for 24 hours
[6] = FIG. 23, EOL1 cells, time course 2, 4, 8, 16, and 24 hours, 1 μM and 10M
[7] = FIG. 24, EOL1 cells, 1 μM and 10M for 24 and 48 hours

T2 sequence (Q8TEK3 whole entry): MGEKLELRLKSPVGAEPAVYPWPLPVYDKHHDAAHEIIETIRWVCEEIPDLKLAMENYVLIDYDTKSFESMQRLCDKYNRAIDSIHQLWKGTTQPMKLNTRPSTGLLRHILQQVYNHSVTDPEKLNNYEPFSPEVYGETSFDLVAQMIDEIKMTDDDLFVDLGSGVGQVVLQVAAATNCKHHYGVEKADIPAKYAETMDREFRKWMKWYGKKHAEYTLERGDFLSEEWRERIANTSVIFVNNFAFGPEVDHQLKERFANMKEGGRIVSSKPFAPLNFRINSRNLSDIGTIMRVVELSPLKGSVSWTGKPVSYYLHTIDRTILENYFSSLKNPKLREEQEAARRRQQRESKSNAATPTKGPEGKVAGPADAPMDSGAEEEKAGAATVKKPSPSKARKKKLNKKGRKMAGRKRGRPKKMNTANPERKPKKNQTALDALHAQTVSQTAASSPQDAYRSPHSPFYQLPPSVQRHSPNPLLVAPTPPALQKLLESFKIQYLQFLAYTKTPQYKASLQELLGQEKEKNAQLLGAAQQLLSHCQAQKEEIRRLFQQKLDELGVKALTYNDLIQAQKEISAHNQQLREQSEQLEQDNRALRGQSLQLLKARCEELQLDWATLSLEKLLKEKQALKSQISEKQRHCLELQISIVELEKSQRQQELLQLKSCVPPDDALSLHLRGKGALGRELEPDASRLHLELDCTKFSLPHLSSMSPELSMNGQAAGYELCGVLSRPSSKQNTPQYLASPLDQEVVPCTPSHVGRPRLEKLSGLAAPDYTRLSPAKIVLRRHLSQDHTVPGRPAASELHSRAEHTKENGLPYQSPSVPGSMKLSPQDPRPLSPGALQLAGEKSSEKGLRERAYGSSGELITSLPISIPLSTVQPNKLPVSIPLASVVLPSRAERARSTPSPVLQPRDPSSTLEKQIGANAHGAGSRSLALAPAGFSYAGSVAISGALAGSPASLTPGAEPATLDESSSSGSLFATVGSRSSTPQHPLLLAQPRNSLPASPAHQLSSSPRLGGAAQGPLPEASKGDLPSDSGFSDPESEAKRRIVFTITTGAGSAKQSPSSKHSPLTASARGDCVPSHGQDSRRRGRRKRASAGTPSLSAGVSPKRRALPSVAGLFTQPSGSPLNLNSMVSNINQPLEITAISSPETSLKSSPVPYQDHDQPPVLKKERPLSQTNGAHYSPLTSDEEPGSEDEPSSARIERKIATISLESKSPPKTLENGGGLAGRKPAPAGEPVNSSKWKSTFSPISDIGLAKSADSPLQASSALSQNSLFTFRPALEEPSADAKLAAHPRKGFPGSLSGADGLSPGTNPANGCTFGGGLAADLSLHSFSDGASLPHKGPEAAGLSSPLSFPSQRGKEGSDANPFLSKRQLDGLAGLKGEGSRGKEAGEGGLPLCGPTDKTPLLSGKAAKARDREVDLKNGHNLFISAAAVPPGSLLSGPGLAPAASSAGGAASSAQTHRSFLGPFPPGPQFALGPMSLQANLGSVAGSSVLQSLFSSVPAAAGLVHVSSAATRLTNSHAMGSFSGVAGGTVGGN
T3 sequence (Q6XZL8 1-1540): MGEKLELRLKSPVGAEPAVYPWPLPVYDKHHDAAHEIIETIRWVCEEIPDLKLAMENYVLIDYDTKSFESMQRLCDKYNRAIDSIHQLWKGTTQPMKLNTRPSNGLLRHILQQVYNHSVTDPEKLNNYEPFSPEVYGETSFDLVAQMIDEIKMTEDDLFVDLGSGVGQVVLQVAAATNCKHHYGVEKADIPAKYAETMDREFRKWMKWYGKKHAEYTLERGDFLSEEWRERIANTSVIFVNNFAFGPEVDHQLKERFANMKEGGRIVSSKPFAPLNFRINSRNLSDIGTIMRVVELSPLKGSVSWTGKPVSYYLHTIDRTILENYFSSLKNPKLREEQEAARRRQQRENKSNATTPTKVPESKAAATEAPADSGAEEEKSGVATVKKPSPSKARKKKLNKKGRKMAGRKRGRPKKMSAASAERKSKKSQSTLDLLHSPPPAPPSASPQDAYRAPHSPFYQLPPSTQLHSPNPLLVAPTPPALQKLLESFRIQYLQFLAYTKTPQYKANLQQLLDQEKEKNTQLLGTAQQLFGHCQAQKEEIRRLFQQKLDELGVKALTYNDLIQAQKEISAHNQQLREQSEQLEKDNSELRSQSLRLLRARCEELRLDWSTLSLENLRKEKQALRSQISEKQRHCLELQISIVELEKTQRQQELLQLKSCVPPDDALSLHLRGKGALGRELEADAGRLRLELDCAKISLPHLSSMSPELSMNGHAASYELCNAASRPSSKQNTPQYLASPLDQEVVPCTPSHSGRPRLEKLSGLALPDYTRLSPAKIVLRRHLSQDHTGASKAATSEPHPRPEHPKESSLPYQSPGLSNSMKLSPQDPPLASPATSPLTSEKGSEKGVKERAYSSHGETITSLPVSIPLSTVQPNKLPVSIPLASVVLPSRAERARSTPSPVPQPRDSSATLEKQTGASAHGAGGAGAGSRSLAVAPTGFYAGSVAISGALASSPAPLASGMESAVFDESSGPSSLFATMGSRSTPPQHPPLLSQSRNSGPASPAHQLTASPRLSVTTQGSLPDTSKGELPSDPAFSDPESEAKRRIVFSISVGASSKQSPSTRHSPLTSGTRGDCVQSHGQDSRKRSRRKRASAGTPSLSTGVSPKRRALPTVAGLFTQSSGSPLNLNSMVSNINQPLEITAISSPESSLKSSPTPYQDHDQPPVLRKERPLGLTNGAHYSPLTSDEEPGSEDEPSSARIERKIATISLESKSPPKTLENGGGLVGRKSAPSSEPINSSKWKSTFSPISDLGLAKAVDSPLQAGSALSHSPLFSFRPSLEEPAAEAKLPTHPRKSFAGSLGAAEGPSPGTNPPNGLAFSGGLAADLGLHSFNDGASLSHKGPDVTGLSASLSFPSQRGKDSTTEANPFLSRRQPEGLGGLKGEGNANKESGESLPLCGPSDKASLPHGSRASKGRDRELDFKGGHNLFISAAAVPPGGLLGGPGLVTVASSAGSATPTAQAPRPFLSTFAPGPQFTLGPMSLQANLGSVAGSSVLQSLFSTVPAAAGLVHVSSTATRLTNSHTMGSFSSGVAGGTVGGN
T1 sequence (Q8TEK3 whole entry): as the sequence (Q8TEK3 whole entry) above
T1 sequence (Q96SW2 whole entry): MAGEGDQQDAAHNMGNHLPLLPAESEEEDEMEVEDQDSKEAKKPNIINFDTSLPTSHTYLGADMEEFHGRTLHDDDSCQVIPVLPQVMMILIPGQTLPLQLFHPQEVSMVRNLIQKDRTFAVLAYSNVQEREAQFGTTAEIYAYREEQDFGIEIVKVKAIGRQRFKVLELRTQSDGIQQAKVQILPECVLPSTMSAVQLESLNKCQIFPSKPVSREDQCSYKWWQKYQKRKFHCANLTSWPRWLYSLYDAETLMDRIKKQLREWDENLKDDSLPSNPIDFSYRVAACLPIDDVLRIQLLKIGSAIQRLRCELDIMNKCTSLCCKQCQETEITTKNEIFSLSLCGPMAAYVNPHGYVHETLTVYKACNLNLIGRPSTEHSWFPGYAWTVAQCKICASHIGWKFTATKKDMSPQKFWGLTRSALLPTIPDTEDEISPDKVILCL
T1 sequence (Q16531 whole entry partner): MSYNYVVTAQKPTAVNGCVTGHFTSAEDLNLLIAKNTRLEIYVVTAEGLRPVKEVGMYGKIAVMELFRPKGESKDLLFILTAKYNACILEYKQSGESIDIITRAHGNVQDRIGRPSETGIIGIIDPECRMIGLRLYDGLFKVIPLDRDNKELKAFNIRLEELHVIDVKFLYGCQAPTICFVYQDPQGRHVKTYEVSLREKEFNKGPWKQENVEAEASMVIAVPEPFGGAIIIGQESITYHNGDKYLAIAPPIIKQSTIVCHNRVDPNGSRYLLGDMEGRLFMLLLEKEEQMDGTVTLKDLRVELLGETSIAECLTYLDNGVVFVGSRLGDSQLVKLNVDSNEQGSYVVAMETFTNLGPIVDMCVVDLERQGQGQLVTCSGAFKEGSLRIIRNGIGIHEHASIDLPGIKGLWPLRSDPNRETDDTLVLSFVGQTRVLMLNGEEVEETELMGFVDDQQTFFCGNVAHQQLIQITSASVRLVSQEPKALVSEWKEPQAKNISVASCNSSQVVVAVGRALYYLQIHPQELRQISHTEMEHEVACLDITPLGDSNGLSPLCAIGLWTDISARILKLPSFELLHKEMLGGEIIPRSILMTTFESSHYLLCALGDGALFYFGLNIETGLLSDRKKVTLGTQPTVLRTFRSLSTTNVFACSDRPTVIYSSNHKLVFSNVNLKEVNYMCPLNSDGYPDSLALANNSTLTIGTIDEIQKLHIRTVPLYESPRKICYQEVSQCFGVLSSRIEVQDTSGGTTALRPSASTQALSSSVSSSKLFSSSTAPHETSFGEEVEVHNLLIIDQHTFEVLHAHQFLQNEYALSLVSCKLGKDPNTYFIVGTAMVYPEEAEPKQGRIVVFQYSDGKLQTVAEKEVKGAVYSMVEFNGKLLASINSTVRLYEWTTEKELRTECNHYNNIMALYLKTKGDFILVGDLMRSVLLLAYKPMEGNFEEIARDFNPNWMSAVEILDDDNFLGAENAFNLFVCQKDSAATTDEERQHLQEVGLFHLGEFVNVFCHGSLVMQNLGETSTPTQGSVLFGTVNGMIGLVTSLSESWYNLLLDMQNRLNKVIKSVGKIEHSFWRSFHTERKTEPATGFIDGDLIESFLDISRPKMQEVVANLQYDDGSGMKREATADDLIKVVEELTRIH
Sequence of CRBN with DOT1L (Q8TEK3 whole entry): as the sequence (Q8TEK3 whole entry) above
Sequence of CRBN with DOT1L (Q96SW2 whole entry): as the sequence (Q96SW2 whole entry) above

Structure (SMILES): CC(C)N(C[C@H]1O[C@@H](n2cnc3c(NCCCCNC(=O)CCCCCCCCCCCNc4cccc5c4C(=O)N(C4CCC(=O)NC4=O)C5=O)ncnc32)C(O)C1O)C1CC(CCc2nc3cc(C(C)(C)C)ccc3[nH]2)C1 (stereo partly drawn) [JQ-DD6]
- dimerization of CRBN with DOT1L (signal) (CRBN with DOT1L): strongest signal
- degradation of DOT1L (reporter signal) [1]: strongest signal for degradation of DOT1L
- DOT1L degradation (DOT1L [2]; [5]): solid degradation
- time at which DOT1L degradation happened (DOT1L [2]; [6]): 16 h
- time of maximum DOT1L degradation (DOT1L [2]; [6]): 24 h
- DOT1L degradation (DOT1L [2]; [7]): shows degradation
- activity in the cell (DOT1L [2]; general remark in legend of FIG. 20, cell not named there): works very well in the cell

Structure (SMILES): CC(C)N(C[C@H]1O[C@@H](n2cnc3c(NCCCCNC(=O)CCCCCCCCCNc4cccc5c4C(=O)N(C4CCC(=O)NC4=O)C5=O)ncnc32)C(O)C1O)C1CC(CCc2nc3cc(C(C)(C)C)ccc3[nH]2)C1 (stereo partly drawn) [JQ-DD7]
- DOT1L degradation (DOT1L [2]; [5]): show degradation
- DOT1L degradation (DOT1L [2]; [7]): shows degradation

Structure (SMILES): CC(C)N(CCCNC(=O)Nc1ccc(C(C)(C)C)cc1)C[C@H]1O[C@@H](n2cnc3c(NCCCCNC(=O)CCCCCCCCCCCNc4cccc5c4C(=O)N(C4CCC(=O)NC4=O)C5=O)ncnc32)C(O)C1O (stereo partly drawn) [JQ-DD8]
- toxicity in EOL1 (EOL1 cells; FIG. 21, EOL1 cells): potential toxicity
- toxicity in EOL1 (EOL1 cells; FIG. 24, EOL1 cells): potential toxicity
- DOT1L degradation (DOT1L [2]; [5]): show degradation
- DOT1L degradation (DOT1L [2]; [7]): shows degradation

Structure (SMILES): CC(C)N(C[C@H]1O[C@@H](n2cnc3c(NCCCCNC(=O)C=COCCOCCOCCNc4cccc5c4C(=O)N(C4CCC(=O)NC4=O)C5=O)ncnc32)[C@H](O)[C@@H]1O)C1CC(CCc2nc3cc(C(C)(C)C)ccc3[nH]2)C1 (stereo partly drawn) [DOT1L-1, N-(4-((9-((2R,3R,4S,5R)-5-(((3-(2-(5-(tert-butyl)-1H-benzo[d]imidazol-2-yl)ethyl)cyclobutyl)(isopropyl)amino)methyl)-3,4-dihydroxytetrahydrofuran-2-yl)-9H-purin-6-yl)amino)butyl)-3-(2-(2-(2-((2-(2,6-dioxopiperidin-3-yl)-1,3-dioxoisoindolin-4-yl)amino)ethoxy)ethoxy)ethoxy)propenamide]
- degradation in blots (DOT1L, H3K79me2) (DOT1L [3]): degrades Mouse MLL-AF9 PA (Mixed-lineage leukemia (MLL)-AF9 leukemia) cells
- effect on Molm13 PA cells in blots (DOT1L, H3K79me2) (DOT1L [4]): inhibits acute myeloid leukemia cells (Molm13 PA)
